Measurements as given in patent publication US8247170B2, “Detection of penicillin tolerance in Group B Streptococcus: single nucleotide polymorphisms in penicillin binding protein 4” (priority 2008, dated 2012).

Tested on: GBS strains
Test: Cell viability by intracellular ATP concentration after penicillin
Assay type: cell-based, Group B Streptococcus
Conditions: GBS strain A909 compared to NEM316 and O90R; 100×MIC90 Penicillin G 22 hours
Method: GBS strains were cultured for 18 hours at 37° C. in THB. These cultures were used to inoculate fresh THB and subsequently allowed to grow to exponential phase (OD600 0.25-0.3) at 37° C. One (1) ml of culture was centrifuged at 5,000 g for 4 min. The cell pellet was re-suspended in ATP free water. Cellular ATP was extracted by using trichloroacetic acid (TCA) (5%) for 2 min. and subsequently neutralized with Tris-EDTA-0.1M NaOAc, pH 7.75 to 10×TCA volume. The initial (in.) cellular ATP concentration ([ATP]) was measured using the ENLITEN (Promega) luciferase based reaction kit. THB cultures then treated 100×MIC90 Penicillin G for 22 hours. The experimental (exp.) cellular ATP was extracted and the concentration was measured as stated above. Based on the calculations ([ATP] exp.)/([ATP] in./O.D. in.), differences in viability were equated with the change in [ATP].
(I) Bacterial Strains and Culture Conditions. […] Cell cultures were allowed to re-grow for an additional 24 h at 37° C. before the OD600 was measured. […] The initial (in.) cellular ATP concentration ([ATP]) was measured using the ENLITEN (Promega) luciferase based reaction kit. […] The experimental (exp.) cellular ATP was extracted and the concentration was measured as stated above. […]

CC1(C)S[C@@H]2[C@H](NC(=O)Cc3ccccc3)C(=O)N2[C@H]1C(=O)O [Penicillin G]
cellular [ATP] content (FIG. 3): significant lesser [ATP] content
